Measured values published in PubChem BioAssay AID1949 (Southern Research Institute, 2009).
≈ marks a conversion by molar mass, not a printed value. Results filed as inconclusive are left out. Calls of active or inactive are those of the source. No rule for the calls is given here.

These molecules were tested on M. tuberculosis H37Rv growth inhibition (assay: Mycobacterium tuberculosis H37Rv growth inhibition, cell based, confirmatory dose response (AID 1949);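 also: bacteria grown 7 days with compound before Alamar blue readout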).

SMILES | IC50
CCN(CC)CC(O)Cn1c(C)c(-c2ccccc2)c2cc([N+](=O)[O-])ccc21 (configuration not stated) | 29.4 µg/mL (≈ 77 µM)
COC(=O)CSc1[nH]c2ccc(F)cc2c1[N+](=O)[O-] | 23.2 µg/mL (≈ 81.7 µM)
Cc1ccc(Cl)cc1N1CCN(C(=O)CC23CC4CC(CC(C4)C2)C3)CC1 | 4.43 µg/mL (≈ 11.4 µM)
Cc1cc(C(=O)Oc2ccccc2)ccc1[N+](=O)[O-] | 1.87 µg/mL (≈ 7.27 µM)
CC(C)(C)c1ccc(OCCCNCc2ccccc2)cc1 | 4.84 µg/mL (≈ 16.3 µM)
COc1cc2ccccc2cc1C(=O)NCCC12CC3CC(CC(C3)C1)C2 | 3.27 µg/mL (≈ 9 µM)
COC(=O)c1c(NC(=O)c2cc3ccccc3oc2=O)sc2c1CCC2 | 4.29 µg/mL (≈ 11.6 µM)
CCOc1ccccc1NC(=O)CSc1nc2ccc(NC(=O)c3ccccc3Cl)cc2s1 | 1.25 µg/mL (≈ 2.51 µM)
Cc1cc2ncn(CCCOc3ccccc3C)c2cc1C | 4.63 µg/mL (≈ 15.7 µM)
CCN(CC)C(=S)NC(=O)c1ccc(Cl)cc1 | 1.43 µg/mL (≈ 5.28 µM)
CCN(CC)c1cccc(Oc2nc([N+](=O)[O-])nn2C)c1 | 1.81 µg/mL (≈ 6.21 µM)
CCN1CCN(c2ccc(NC(=O)c3cc4ccccc4cc3OC)cc2Cl)CC1 | 23.9 µg/mL (≈ 56.5 µM)
COc1ccc(Br)cc1C(=O)Nc1ccc(N2CCN(C)CC2)cc1 | 12.6 µg/mL (≈ 31.1 µM)
CCN(CC)c1ccc(NC(=S)NCCc2ccc(OC)c(OC)c2)cc1 | 1.68 µg/mL (≈ 4.33 µM)
Cc1ccc(C(=O)N2CCN(c3ccc(NC(=O)COc4c(C)cc(C)cc4Br)cc3)CC2)cc1 | 1.34 µg/mL (≈ 2.5 µM)
O=C(Nc1ccc(C(F)(F)F)cc1)C1COc2ccccc2O1 (configuration not stated) | 37.9 µg/mL (≈ 117 µM)
COc1ccccc1C1CC(=O)C2=C(C1)NC(C)=C(C(=O)OC1CCCC1)C2c1ccc(O)cc1 (configuration not stated) | 4.74 µg/mL (≈ 10 µM)
CC(=O)Oc1cc(C)cc2oc(=O)c3c(c12)CCCC3 | 3.85 µg/mL (≈ 14.1 µM)
Cn1c(=O)c([N+](=O)[O-])c(Nc2cccc(C(F)(F)F)c2)c2ccccc21 | 15.4 µg/mL (≈ 42.3 µM)
CC1CCc2nc(NC(=S)NCc3ccco3)sc2C1 (configuration not stated) | 3.09 µg/mL (≈ 10.1 µM)
Cc1cccc(C)c1OCC(=O)N/N=C/c1ccc(O)c([N+](=O)[O-])c1 | 0.36 µg/mL (≈ 1.05 µM)
COc1ccc(NC(=O)c2ccc(C#CC(C)(C)O)s2)cc1 | 0.31 µg/mL (≈ 0.983 µM)
O=C(Nc1cc(Cl)ccc1O)c1cc(Cl)ccc1Cl | 12.2 µg/mL (≈ 38.5 µM)
Cc1cccc(C(C)(C)C)c1OCCn1ccnc1 | 8.23 µg/mL (≈ 31.9 µM)

SMILES | IC50
CCOC(=O)COc1ccc(S(=O)(=O)Nc2ccc(C)c(C)c2)cc1 | 1.03 µg/mL (≈ 2.83 µM)
O=C(Oc1ccccc1)c1cccc2cccnc12 | 0.99 µg/mL (≈ 3.97 µM)
c1cc2[nH]onc2c2c3c(nc12)CCCC3 | 8.28 µg/mL (≈ 38.8 µM)
N#Cc1ccc(NC(=O)Nc2ccc(Cl)cc2)cc1 | 0.51 µg/mL (≈ 1.88 µM)
O=C(Cc1ccccc1)NC(=S)Nc1ccc(Oc2ccccc2)cc1 | 7.61 µg/mL (≈ 21 µM)
CC(=O)Cc1nc(-c2ccccc2)no1 | > 50 µg/mL (inactive)
C#CCSc1nnc(-c2ccc(Br)cc2)o1 | 0.94 µg/mL (≈ 3.18 µM)
O=[N+]([O-])c1ccc(N2CCN(C(=S)NCc3ccc(Cl)cc3)CC2)cc1 | 2.58 µg/mL (≈ 6.6 µM)
CCC(=O)NC(=S)Nc1ccc(N2CCCCC2)cc1 | 3.52 µg/mL (≈ 12.1 µM)
O=S1(=O)C=C(Sc2nc3ccccc3s2)c2ccccc21 | < 0.1 µg/mL
COc1ccccc1NC(=O)CSc1nc(-c2ccccc2)cc(C(F)(F)F)c1C#N | 1.63 µg/mL (≈ 3.68 µM)
O=S1(=O)C=CC2ON=C(c3ccc(C(F)(F)F)cc3)C21 (configuration not stated) | 3.08 µg/mL (≈ 10.2 µM)
O=C(CSc1nnc(-c2ccccc2Cl)o1)Nc1ccccn1 | > 50 µg/mL (inactive)
O=c1c2ccccc2nc(CSc2ncnc3ccccc23)n1-c1ccc(Cl)c(Cl)c1 | > 50 µg/mL (inactive)
O=C(Nc1ccc(Cl)cc1)Nc1ccc(F)c(F)c1 | 0.94 µg/mL (≈ 3.33 µM)
Cc1cccc(N2CCN(C3=NC(=O)C(=C4CCCCC4)S3)CC2)c1 | 0.78 µg/mL (≈ 2.19 µM)
Fc1ccc(C2=NN(c3ccc(Cl)cc3)C(c3cccs3)C2)cc1 (configuration not stated) | 5.63 µg/mL (≈ 15.8 µM)
O=C(Oc1c(Cl)cc(Cl)c2cccnc12)c1ccccc1[N+](=O)[O-] | 0.2 µg/mL (≈ 0.551 µM)
COc1ccccc1-c1coc2cc(OCC(=O)OCc3ccccc3)ccc2c1=O | 0.35 µg/mL (≈ 0.84 µM)
O=C(OCc1ccccc1Cl)c1cc2ccccc2oc1=O | > 50 µg/mL (inactive)
CC(=O)Oc1cccc2ccc(/C=C/c3cccc(Br)c3)nc12 | < 0.1 µg/mL
Cc1ccc(Cl)cc1N1CCN(CC(O)COC2CC(C)CC(C)(C)C2)CC1 (configuration not stated) | 7.82 µg/mL (≈ 19.1 µM)
CCn1cc(C(=O)O)c(=O)c2cnc(N3CCN(C(=S)Nc4sc5c(c4C(=O)OC)CCCCCC5)CC3)nc21 | > 50 µg/mL (inactive)
CCOC(=O)COc1ccc2c(C)c(CC(=O)OC)c(=O)oc2c1C | 7.36 µg/mL (≈ 21.1 µM)

SMILES | IC50
CCCc1ccc(OC(=O)c2cc3ccccc3oc2=O)cc1 | 22.4 µg/mL (≈ 72.5 µM)
CC(C)OC(=O)COc1ccc(-c2ccccc2)cc1 | > 50 µg/mL (inactive)
CCOCC(=O)Nc1sc2c(c1C(=O)OCC)CCCC2 | > 50 µg/mL (inactive)
CC(=O)c1cccc(Nc2nc(-c3ccccn3)cs2)c1 | 0.98 µg/mL (≈ 3.32 µM)
COc1ccc(C(=O)C(CN2CCOCC2)c2ccccc2)cc1 (configuration not stated) | 2.09 µg/mL (≈ 6.42 µM)
CCCCn1c(NC(=S)Nc2ccccc2)nc2ccccc21 | 4.83 µg/mL (≈ 14.9 µM)
Cc1sc2ncnc(N3CCN(CCOc4ccc(Cl)cc4)CC3)c2c1C | > 50 µg/mL (inactive)
CCOC(=O)c1cc(=O)c(-c2ccccc2)n[nH]1 | 3.8 µg/mL (≈ 15.6 µM)
COC(=O)COc1ccc(NC(=O)c2ccccc2Br)cc1 | 1.17 µg/mL (≈ 3.21 µM)
COc1ccc(CCNC(=S)N2CCN(C/C=C/c3ccccc3)CC2)cc1OC | 1.73 µg/mL (≈ 4.06 µM)
CC(C)(C)c1cc(Cl)ccc1OCCn1ccnc1 | 1.94 µg/mL (≈ 6.96 µM)
CCOC(=O)CCc1c(C)c(C#N)c2[nH]c3ccccc3n2c1=O | < 0.1 µg/mL
CC(C)(C)c1ccc(C(=O)NC(=S)Nc2ccc(C(=O)O)cc2)cc1 | 0.64 µg/mL (≈ 1.8 µM)
CCC(=O)Oc1cccc2ccc(/C=C/c3ccccc3F)nc12 | < 0.1 µg/mL
COc1cccc(Nc2nc(-c3ccccn3)cs2)c1 | 0.17 µg/mL (≈ 0.6 µM)
Cc1occc1C(=O)Nc1sc(Cc2ccccc2)cc1C(N)=O | > 50 µg/mL (inactive)
O=c1c2cc(I)ccc2nc(/C=C/c2cccnc2)n1CCc1ccccc1 | 31.4 µg/mL (≈ 65.4 µM)
COc1cc(Br)cc2cc(C(=O)Nc3ccccc3C(F)(F)F)c(=O)oc12 | > 50 µg/mL (inactive)
O=S(=O)(Nc1cc(Sc2ccccc2)c(O)c2ccccc12)c1cccs1 | 25.7 µg/mL (≈ 62.2 µM)
Cc1ccccc1C(=O)Nc1sc2c(c1C(=O)NCCO)CCC(C(C)(C)C)C2 (configuration not stated) | > 50 µg/mL (inactive)
CCOc1ccc(Nc2nc(-c3ccccn3)cs2)cc1 | < 0.1 µg/mL
COc1cc(C(=O)Nc2nc3c(s2)CCCC3)c(Br)c(OC)c1OC | 2.8 µg/mL (≈ 6.55 µM)
CCn1c2ccccc2c2cc(CN3CCC(N4CCN(c5ccccc5OC)CC4)CC3)ccc21 | 22.4 µg/mL (≈ 46.4 µM)
CCC(C)c1ccccc1OCC(=O)Nc1ccc(Cl)cc1 (configuration not stated) | 4.68 µg/mL (≈ 14.7 µM)

SMILES | IC50
Cc1ccc(OCC(=O)c2ccc(Br)cc2)cc1C | 47.7 µg/mL (≈ 149 µM)
O=[N+]([O-])c1ccc2nc(CSc3nc4ccccc4o3)[nH]c2c1 | 3.21 µg/mL (≈ 9.84 µM)
COc1ccc2cc(-c3nn(-c4ccccc4)cc3CO)ccc2c1 | > 50 µg/mL (inactive)
CCOC(=O)c1c(CSc2ccccc2)n(-c2ccccc2)c2ccc(O)c(CN(C)C)c12 | 1.4 µg/mL (≈ 3.04 µM)
Cc1ccc(OCCN2CCN(c3nc(NCc4ccco4)c4ccccc4n3)CC2)cc1 | 6.3 µg/mL (≈ 14.2 µM)
CCc1ccc(C(=S)Nc2ccccc2)nc1 | 2.23 µg/mL (≈ 9.2 µM)
Cc1ccc2cccc(OCCOc3ccccc3C(C)C)c2n1 | 4.02 µg/mL (≈ 12.5 µM)
CCOC(=O)c1c(-c2ccccc2)oc2ccc(O)c(CN3CCCC3)c12 | 3.37 µg/mL (≈ 9.22 µM)
O=C(Nc1ccc(C(F)(F)F)cc1)Nc1cccc(F)c1 | 0.76 µg/mL (≈ 2.55 µM)
CCCc1cc2c(-c3ccccc3)cc(=O)oc2cc1OCC | > 50 µg/mL (inactive)
CCOC(=O)c1c(-c2ccccc2)c2cc(OC)ccc2n1CCCN(C)C | 4.68 µg/mL (≈ 12.3 µM)
Cc1nc(SCc2csc(C)n2)c2c3c(sc2n1)CCCC3 | 1.61 µg/mL (≈ 4.63 µM)
CN(C)C(=O)CSc1cccc2cccnc12 | 6.25 µg/mL (≈ 25.4 µM)
CCc1cc2c(=O)c(-c3ccc4c(c3)OCCCO4)coc2cc1OC(C)C(=O)OC (configuration not stated) | 39.9 µg/mL (≈ 94.1 µM)
Cc1cc(C)n(-c2nc3sc4c(c3c(=O)[nH]2)CCCC4)n1 | 24.4 µg/mL (≈ 81.1 µM)
CN1C(=O)N(C)c2ccc(C=O)c3cccc1c23 | > 50 µg/mL (inactive)
CCN(CC)C(=S)NC(=O)c1ccc(F)cc1 | 3.03 µg/mL (≈ 11.9 µM)
COc1c2ccoc2nc2c(OC)cccc12 | 1.76 µg/mL (≈ 7.68 µM)
COC(=O)COc1ccc2c(=O)c(-c3ccccc3Cl)coc2c1 | 0.4 µg/mL (≈ 1.16 µM)
C=C1C2(C(=O)Nc3nc4ccc(Br)cc4s3)CCC(C2)C1(C)C (configuration not stated) | 11.4 µg/mL (≈ 29.1 µM)
Cc1ccc(C)c(NC(=O)c2ccc(-c3ccccc3Cl)o2)c1 | 12.9 µg/mL (≈ 39.7 µM)
COC(=O)CSc1nc2sc3c(c2c(=O)n1Cc1ccccc1)CCC(C(C)(C)C)C3 (configuration not stated) | > 50 µg/mL (inactive)
CC1=Nc2c(ccc3cccnc23)C1(C)C | 0.19 µg/mL (≈ 0.904 µM)
CCOC(=O)c1sc(NC(=O)NC2CCCCC2)cc1C | 0.75 µg/mL (≈ 2.42 µM)

SMILES | IC50
O=C(COc1ccc(Br)cc1)Nc1ccccc1F | 29.5 µg/mL (≈ 91.1 µM)
O=[N+]([O-])c1ccc(N2CCN(CCO)CC2)cc1NCCOc1cccc2ccccc12 | 2.82 µg/mL (≈ 6.46 µM)
CCOC(=O)c1c(C)n(Cc2ccccc2)c2ccc(OCC(O)CNC(C)(C)C)cc12 (configuration not stated) | 4.28 µg/mL (≈ 9.76 µM)
CCOC(=O)COc1ccc2c(=O)c(Oc3ccccc3Cl)coc2c1 | 2.08 µg/mL (≈ 5.55 µM)
O=C(/C=C/c1cccc(C(F)(F)F)c1)Nc1cccc(C(F)(F)F)c1 | 0.9 µg/mL (≈ 2.51 µM)
Cc1nn(-c2nc3ccccc3[nH]2)c(N)c1-c1ccccc1 | 0.43 µg/mL (≈ 1.49 µM)
CCCCc1cc(=O)oc2cc(OCC(=O)OCc3ccccc3)c(Cl)cc12 | < 0.1 µg/mL
NC(=O)c1c(NC(=O)c2cc3ccccc3oc2=O)sc2c1CCCCCC2 | 1.03 µg/mL (≈ 2.6 µM)
CCCCc1cc(=O)oc2cc(OC(C)C(=O)OCC)c(Cl)cc12 (configuration not stated) | < 0.1 µg/mL
O=C1c2ccccc2C2=Nc3cc(Cl)ccc3OC12O (configuration not stated) | 5.5 µg/mL (≈ 19.3 µM)
O=C(/C=C/c1cccc(C(F)(F)F)c1)Nc1ccc(Cl)cc1 | 5.09 µg/mL (≈ 15.6 µM)
O=C(Nc1nccs1)c1ccc(CSc2ccccc2)o1 | 3.09 µg/mL (≈ 9.77 µM)
CCOc1cc(CNC23CC4CC(CC(C4)C2)C3)ccc1OCc1cccs1 | 0.82 µg/mL (≈ 2.06 µM)
COc1ccc(-c2cc(C(=O)N/N=C/C=C/c3ccccc3OC)[nH]n2)cc1 | < 0.1 µg/mL
O=C(Nc1ccccc1Cl)c1cc2cc(Cl)cc(Cl)c2oc1=O | > 50 µg/mL (inactive)
OC(CN1CCN(C(c2ccccc2)c2ccccc2)CC1)Cn1c2ccccc2c2ccccc21 (configuration not stated) | 10.7 µg/mL (≈ 22.5 µM)
Cn1c(NC(=S)Nc2ccccc2)nc2ccccc21 | 0.35 µg/mL (≈ 1.24 µM)
COC(=O)CSc1nnc(NC(=O)c2ccc(C(C)(C)C)cc2)s1 | < 0.1 µg/mL
Cc1ccc(N2C(=O)CC(Sc3ccccc3C(=O)Nc3ccccc3)C2=O)cc1 (configuration not stated) | 4.92 µg/mL (≈ 11.8 µM)
COc1cccc(C2Oc3ccccc3C=C2[N+](=O)[O-])c1OC (configuration not stated) | > 50 µg/mL (inactive)
COc1ccc(-c2c(C)oc3cc(OCC(=O)OC(C)C)ccc3c2=O)cc1OC | 1.36 µg/mL (≈ 3.3 µM)
